{"source": "patent US20200286590A1", "about": "“SYSTEMS, APPARATUS, AND METHODS FOR GENERATING AND ANALYZING RESISTOME PROFILES” (priority 2014, published 2020)", "key": {"[1]": {"tested_on": "K. pneumoniae isolate 850707", "assay": "Minimum inhibitory concentration (MIC) results, isolate 850707", "assay_type": "cell-based", "settings": "for MIC: Klebsiella pneumoniae, read-out: MIC Value", "from_the_text": "(§1) The ability to view additional or varied information may be set by a user as a preference on a customized basis, or the information may be hidden and made available based on a request or selection from a user according to some embodiments. For example, a display interface may be configured such that the user can make a selection on a short form name or symbol to expand a field or open a new window on the display that provides detailed antibiotic resistance data or other diagnostically useful information for a subject sample. For example, in TABLE 17, the differences in minimum inhibitory concentration (MIC) results for two isolate species are provided.\n(§2) In TABLE 18, the isolates are numbered and linked to an isolate species (K. pneumoniae); resistome profiles including the species (K1), phenotype (CRE), genotype (IMP and C1), and profile uniqueness identifiers indicating sequential unique patterns compared to an associated database (1-1 and 2-1, respectively); Acuitas MDRO Gene Test results (IMP(A) and CTX-M(A)); and reported genotypes listed in rank order of clinical importance (IMP-26, CTX-M-15, and SHV-28(u), and IMP-4, CTX-M-15, SHV-1(b), and TEM, respectively). The trailing “1s” in the assigned resistome profiles (i.e., the second digit of each profile uniqueness identifier) reflect the first occurrences of these patterns/profiles derived based on data collected from subject sample measurements. In this example, the tests are not designed to detect SHV, TEM, ACT/MIR, CMY-2, DHA-1, ACT-16, or VEB-1."}, "[2]": {"tested_on": "K. pneumoniae isolate 850793", "assay": "Minimum inhibitory concentration (MIC) results, isolate 850793", "assay_type": "cell-based", "settings": "for MIC: Klebsiella pneumoniae, read-out: MIC Value", "from_the_text": "as §1, §2"}, "[3]": {"tested_on": "carbapenem-resistant Enterobacteriaceae", "settings": "CRE, cited from earlier work"}, "[4]": {"tested_on": "cephalosporin-resistant (3rd or 4th generation) Gram-negative bacillus", "settings": "CephR-GNB; Revised (M100-S20); cited from earlier work"}, "[5]": {"tested_on": "D-alanyl-D-lactate variation of NAM/NAG-peptide subunits", "settings": "D-alanyl-D-lactate versus D-alanyl-D-alanine; cited from earlier work"}, "[6]": {"tested_on": "D-alanyl-D-serine variation of NAM/NAG-peptide subunits", "settings": "D-alanyl-D-serine versus D-alanyl-D-alanine; cited from earlier work"}, "[7]": {"settings": "Isolate No. 850707, K. pneumoniae, IMP-26, CTX-M-15, SHV-28(u)"}, "[8]": {"settings": "Isolate No. 850793, K. pneumoniae, IMP-4, CTX-M-15, SHV-1(b), TEM"}}, "note": "Like-named read-outs stand apart in the source and are kept apart here.", "data": [{"compound": "C[C@@H](O)[C@H]1C(=O)N2C(C(=O)O)=C(S[C@@H]3CN[C@H](C(=O)N(C)C)C3)[C@H](C)[C@H]12", "note": "[Meropenem]", "values": [{"measurement": "MIC", "setting": "[1]; [7]", "value": 32, "unit": "µg/mL"}, {"measurement": "MIC", "setting": "[2]; [8]", "value": 8, "unit": "µg/mL"}, {"measurement": "MIC breakpoint, Intermediate", "setting": "[3]; Current Breakpoints (M100-S22)", "value": 2, "unit": "µg/mL"}, {"measurement": "MIC breakpoint, Resistant", "setting": "[3]; Current Breakpoints (M100-S22)", "value": "≥4", "unit": "µg/mL"}, {"measurement": "MIC breakpoint, Susceptible", "setting": "[3]; Current Breakpoints (M100-S22)", "value": "≤1", "unit": "µg/mL"}]}, {"compound": "CO/N=C(\\C(=O)N[C@@H]1C(=O)N2C(C(=O)O)=C(COC(C)=O)CS[C@H]12)c1csc(N)n1", "note": "[Cefotaxime]", "values": [{"measurement": "MIC breakpoint, Intermediate", "setting": "[3]; Revised (M100-S20)", "value": 2, "unit": "µg/mL"}, {"measurement": "MIC breakpoint, Resistant", "setting": "[3]; Revised (M100-S20)", "value": "≥4", "unit": "µg/mL"}, {"measurement": "MIC breakpoint, Susceptible", "setting": "[3]; Revised (M100-S20)", "value": "≤1", "unit": "µg/mL"}]}, {"compound": "CN(C)c1cc(NC(=O)CNC(C)(C)C)c(O)c2c1C[C@H]1C[C@H]3[C@H](N(C)C)C(O)=C(C(N)=O)C(=O)[C@@]3(O)C(O)=C1C2=O", "note": "[Tigecycline]", "values": [{"measurement": "MIC", "setting": "[1]", "value": 2, "unit": "µg/mL"}, {"measurement": "MIC", "setting": "[2]", "value": 1, "unit": "µg/mL"}]}, {"compound": "C[C@@H](O)[C@H]1C(=O)N2C(C(=O)O)=C(SCCN=CN)C[C@H]12", "note": "[Imipenem]", "values": [{"measurement": "MIC", "setting": "[1]; [7]", "value": 2, "unit": "µg/mL"}, {"measurement": "MIC", "setting": "[2]; [8]", "value": 8, "unit": "µg/mL"}]}, {"compound": "NCC[C@H](O)C(=O)N[C@@H]1C[C@H](N)[C@@H](O[C@H]2O[C@H](CN)[C@@H](O)[C@H](O)[C@H]2O)[C@H](O)[C@H]1O[C@H]1O[C@H](CO)[C@@H](O)[C@H](N)[C@H]1O", "note": "[Amikacin]", "values": [{"measurement": "MIC", "setting": "[1]; [7]", "value": 32, "unit": "µg/mL"}, {"measurement": "MIC", "setting": "[2]; [8]", "value": 32, "unit": "µg/mL"}]}, {"compound": "CO/N=C(\\C(=O)N[C@@H]1C(=O)N2C(C(=O)O)=C(CSc3nc(=O)c(=O)[nH]n3C)CS[C@H]12)c1csc(N)n1", "note": "[Ceftriaxone]", "values": [{"measurement": "MIC breakpoint, Intermediate", "setting": "[3]; Revised (M100-S20)", "value": 2, "unit": "µg/mL"}, {"measurement": "MIC breakpoint, Resistant", "setting": "[3]; Revised (M100-S20)", "value": "≥4", "unit": "µg/mL"}, {"measurement": "MIC breakpoint, Susceptible", "setting": "[3]; Revised (M100-S20)", "value": "≤1", "unit": "µg/mL"}]}, {"compound": "C[C@@H](O)[C@H]1C(=O)N2C(C(=O)O)=C(S[C@@H]3CN[C@H](C(=O)Nc4cccc(C(=O)O)c4)C3)[C@H](C)[C@H]12", "note": "[Ertapenem]", "values": [{"measurement": "MIC", "setting": "[1]; [7]", "value": 6, "unit": "µg/mL"}, {"measurement": "MIC", "setting": "[2]; [8]", "value": 1, "unit": "µg/mL"}, {"measurement": "MIC breakpoint, Intermediate", "setting": "[3]; Current Breakpoints (M100-S22)", "value": 1, "unit": "µg/mL"}, {"measurement": "MIC breakpoint, Resistant", "setting": "[3]; Current Breakpoints (M100-S22)", "value": "≥2", "unit": "µg/mL"}, {"measurement": "MIC breakpoint, Susceptible", "setting": "[3]; Current Breakpoints (M100-S22)", "value": "≤0.5", "unit": "µg/mL"}]}, {"compound": "Colistin/TWEEN", "values": [{"measurement": "MIC Value", "setting": "[1]; [7]", "value": 0.12, "unit": "mg/L"}, {"measurement": "MIC Value", "setting": "[2]; [8]", "value": 0.12, "unit": "mg/L"}]}, {"compound": "CC1(C)S[C@@H]2[C@H](NC(=O)[C@H](N)c3ccccc3)C(=O)N2[C@H]1C(=O)O", "note": "[Ampicillin]", "values": [{"measurement": "MIC", "setting": "[1]; [7]", "value": 32, "unit": "µg/mL"}, {"measurement": "MIC", "setting": "[2]; [8]", "value": 32, "unit": "µg/mL"}]}, {"compound": "C[C@@H](O)[C@H]1C(=O)N2C(C(=O)O)=C(S[C@@H]3CN[C@H](CNS(N)(=O)=O)C3)[C@H](C)[C@H]12", "note": "[Doripenem]", "values": [{"measurement": "MIC", "setting": "[1]; [7]", "value": 32, "unit": "µg/mL"}, {"measurement": "MIC", "setting": "[2]; [8]", "value": 4, "unit": "µg/mL"}, {"measurement": "MIC breakpoint, Intermediate", "setting": "[3]; Current Breakpoints (M100-S22)", "value": 2, "unit": "µg/mL"}, {"measurement": "MIC breakpoint, Resistant", "setting": "[3]; Current Breakpoints (M100-S22)", "value": "≥4", "unit": "µg/mL"}, {"measurement": "MIC breakpoint, Susceptible", "setting": "[3]; Current Breakpoints (M100-S22)", "value": "≤1", "unit": "µg/mL"}]}, {"compound": "CO/N=C(\\C(=O)N[C@@H]1C(=O)N2C(C(=O)[O-])=C(C[N+]3(C)CCCC3)CS[C@H]12)c1csc(N)n1", "note": "[Cefepime]", "values": [{"measurement": "MIC", "setting": "[1]; [7]", "value": 16, "unit": "µg/mL"}, {"measurement": "MIC", "setting": "[2]; [8]", "value": 16, "unit": "µg/mL"}, {"measurement": "MIC breakpoint, Intermediate", "setting": "[4]", "value": 16, "unit": "µg/mL"}, {"measurement": "MIC breakpoint, Resistant", "setting": "[4]", "value": "≥32", "unit": "µg/mL"}, {"measurement": "MIC breakpoint, Susceptible", "setting": "[4]", "value": "≤8", "unit": "µg/mL"}]}, {"compound": "C[C@H]1COc2c(N3CCN(C)CC3)c(F)cc3c(=O)c(C(=O)O)cn1c23", "note": "[Levofloxacin]", "values": [{"measurement": "MIC", "setting": "[1]; [7]", "value": 1, "unit": "µg/mL"}, {"measurement": "MIC", "setting": "[2]; [8]", "value": 0.5, "unit": "µg/mL"}]}, {"compound": "CC(C)(O/N=C(\\C(=O)N[C@@H]1C(=O)N2C(C(=O)[O-])=C(C[n+]3ccccc3)CS[C@H]12)c1csc(N)n1)C(=O)O", "note": "[Ceftazidime]", "values": [{"measurement": "MIC", "setting": "[1]; [7]", "value": 16, "unit": "µg/mL"}, {"measurement": "MIC", "setting": "[2]; [8]", "value": 128, "unit": "µg/mL"}, {"measurement": "MIC breakpoint, Intermediate", "setting": "[3]; Revised (M100-S20)", "value": 8, "unit": "µg/mL"}, {"measurement": "MIC breakpoint, Resistant", "setting": "[3]; Revised (M100-S20)", "value": "≥16", "unit": "µg/mL"}, {"measurement": "MIC breakpoint, Susceptible", "setting": "[3]; Revised (M100-S20)", "value": "≤4", "unit": "µg/mL"}, {"measurement": "MIC breakpoint, Intermediate", "setting": "[4]", "value": 8, "unit": "µg/mL"}, {"measurement": "MIC breakpoint, Resistant", "setting": "[4]", "value": "≥16", "unit": "µg/mL"}, {"measurement": "MIC breakpoint, Susceptible", "setting": "[4]", "value": "≤4", "unit": "µg/mL"}]}, {"compound": "CN[C@H](CC(C)C)C(=O)N[C@H]1C(=O)N[C@@H](CC(N)=O)C(=O)N[C@H]2C(=O)N[C@H]3C(=O)N[C@H](C(=O)N[C@H](C(=O)O)c4cc(O)cc(O)c4-c4cc3ccc4O)[C@H](O)c3ccc(c(Cl)c3)Oc3cc2cc(c3O[C@@H]2O[C@H](CO)[C@@H](O)[C@H](O)[C@H]2O[C@H]2C[C@](C)(N)[C@H](O)[C@H](C)O2)Oc2ccc(cc2Cl)[C@H]1O", "note": "[vancomycin]", "values": [{"measurement": "decrease in affinity", "setting": "[5]", "value": 1000, "unit": "fold"}, {"measurement": "loss of affinity between vancomycin and the peptide", "setting": "[6]", "value": "six-fold"}]}]}
